Data taken from patent US20090156577A1, “7-AMINO ALKYLIDENYL-HETEROCYCLIC QUINOLONES AND NAPHTHYRIDONES” (priority 2004, published 2009).
≈ marks a conversion by molar mass, not a printed value. Structures can show the parent of a compound that is named as a salt. Where two headings read alike, the source gives them in different places.

Test system: pathogenic bacteria
Experiment: MIC by microdilution broth method (NCCLS M7-A4), in vitro antibacterial activity
Format: cell-based
Procedure, shortened: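 MIC read after 35 °C incubation for 16–20 h relative to drug-free growth wells. Cation-adjusted Mueller-Hinton broth with two-fold compound dilutions, organisms at roughly 5×10^4 CFU/well final. Method follows NCCLS document M7-A4.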

[1] = Staphylococcus aureus, Organism A: Staphylococcus aureus OC4172, read-out: MIC
[2] = Streptococcus pneumoniae, ATCC49619, Organism E: Streptococcus pneumoniae ATCC 49619, read-out: MIC
[3] = Streptococcus pneumoniae, Organism B: fluoroquinolone-resistant clinical isolate of Streptococcus pneumoniae (QRDR amino acid substitutions)
[4] = Streptococcus pneumoniae, Organism C: fluoroquinolone-resistant clinical isolate of Streptococcus pneumoniae (QRDR amino acid substitutions)
[5] = Streptococcus pneumoniae, Organism D: fluoroquinolone-resistant clinical isolate of Streptococcus pneumoniae (QRDR amino acid substitutions)

SMILES: NC/C=C1/CCCN(c2c(F)cc3c(=O)c(C(=O)O)cn(-c4nc(N)c(F)cc4F)c3c2Cl)C1 [Compound 413, (Z)-1-(6-Amino-3,5-difluoro-pyridin-2-yl)-7-[3-(2-amino-ethylidene)-piperidin-1-yl]8-chloro-6-fluoro-4-oxo-1,4-dihydro-quinoline-3-carboxylic acid]
- MIC [1]: 0.25 µg/mL (≈ 0.506 µM)
- MIC [2]: 2 µg/mL (≈ 4.05 µM)
- MIC [3]: 16 µg/mL (≈ 32.4 µM)
- MIC [4]: > 16 µg/mL
- MIC [5]: > 16 µg/mL

SMILES: NC/C=C1\CCCN(c2c(F)cc3c(=O)c(C(=O)O)cn(-c4nc(N)c(F)cc4F)c3c2Cl)C1 [Compound 414, (E)-1-(6-Amino-3,5-difluoro-pyridin-2-yl)-7-[3-(2-amino-ethylidene)-piperidin-1-yl]8-chloro-6-fluoro-4-oxo-1,4-dihydro-quinoline-3-carboxylic acid]
- MIC [1]: 0.25 µg/mL (≈ 0.506 µM)
- MIC [2]: 2 µg/mL (≈ 4.05 µM)
- MIC [4]: > 16 µg/mL
- MIC [5]: > 16 µg/mL

SMILES: Nc1nc(-n2cc(C(=O)O)c(=O)c3cc(F)c(N4CCC/C(=C(\F)CO)C4)c(Cl)c32)c(F)cc1F [Compound 415, (E)-1-(6-Amino-3,5-difluoro-pyridin-2-yl)-8-chloro-6-fluoro-7-[3-(1-fluoro-2-hydroxy-ethylidene)-piperidin-1-yl]-4-oxo-1,4-dihydro-quinoline-3-carboxylic acid]
- MIC [1]: 0.12 µg/mL (≈ 0.234 µM)
- MIC [2]: 4 µg/mL (≈ 7.8 µM)
- MIC [4]: > 16 µg/mL
- MIC [5]: > 16 µg/mL

SMILES: Nc1nc(-n2cc(C(=O)O)c(=O)c3cc(F)c(N4CCC/C(=C(/Cl)CO)C4)c(Cl)c32)c(F)cc1F [Compound 416, (Z)-1-(6-Amino-3,5-difluoro-pyridin-2-yl)-8-chloro-7-[3-(1-chloro-2-hydroxy-ethylidene)-piperidin-1-yl]-6-fluoro-4-oxo-1,4-dihydro-quinoline-3-carboxylic acid]
- MIC [1]: 0.06 µg/mL (≈ 0.113 µM)
- MIC [2]: 1 µg/mL (≈ 1.89 µM)
- MIC [3]: 16 µg/mL (≈ 30.2 µM)
- MIC [4]: > 16 µg/mL
- MIC [5]: 16 µg/mL (≈ 30.2 µM)

SMILES: Nc1nc(-n2cc(C(=O)O)c(=O)c3cc(F)c(N4CCC(=C(F)CO)CC4)c(Cl)c32)c(F)cc1F [Compound 417, 1-(6-Amino-3,5-difluoro-pyridin-2-yl)-8-chloro-6-fluoro-7-[4-(1-fluoro-2-hydroxy-ethylidene)-piperidin-1-yl]-4-oxo-1,4-dihydro-quinoline-3-carboxylic acid]
- MIC [1]: 0.03 µg/mL (≈ 0.0585 µM)
- MIC [2]: 0.5 µg/mL (≈ 0.975 µM)
- MIC [3]: 8 µg/mL (≈ 15.6 µM)
- MIC [4]: > 16 µg/mL
- MIC [5]: 4 µg/mL (≈ 7.8 µM)

SMILES: CNCC(F)=C1CN(c2c(F)cc3c(=O)c(C(=O)O)cn(-c4nc(N)c(F)cc4F)c3c2Cl)C1 [Compound 418, 1-(6-Amino-3,5-difluoro-pyridin-2-yl)-8-chloro-6-fluoro-7-[3-(1-fluoro-2-methylamino-ethylidene)-azetidin-1-yl]-4-oxo-1,4-dihydro-quinoline-3-carboxylic acid]
- MIC [1]: 0.06 µg/mL (≈ 0.121 µM)
- MIC [2]: 1 µg/mL (≈ 2.01 µM)
- MIC [3]: 16 µg/mL (≈ 32.1 µM)
- MIC [4]: > 16 µg/mL
- MIC [5]: 16 µg/mL (≈ 32.1 µM)

SMILES: Nc1nc(-n2cc(C(=O)O)c(=O)c3cc(F)c(N4CC(=C(F)CO)C4)c(Cl)c32)c(F)cc1F [Compound 419, 1-(6-Amino-3,5-difluoro-pyridin-2-yl)-8-chloro-6-fluoro-7-[3-(1-fluoro-2-hydroxy-ethylidene)-azetidin-1-yl]-4-oxo-1,4-dihydro-quinoline-3-carboxylic acid]
- MIC [1]: ≤ 0.015 µg/mL
- MIC [2]: ≤ 0.015 µg/mL
- MIC [3]: 0.03 µg/mL (≈ 0.0619 µM)
- MIC [4]: 0.25 µg/mL (≈ 0.516 µM)
- MIC [5]: 0.06 µg/mL (≈ 0.124 µM)

SMILES: NCC=C1CN(c2c(F)cc3c(=O)c(C(=O)O)cn(-c4nc(N)c(F)cc4F)c3c2Cl)C1 [Compound 420, 1-(6-Amino-3,5-difluoro-pyridin-2-yl)-7-[3-(2-amino-ethylidene)-azetidin-1-yl]-8-chloro-6-fluoro-4-oxo-1,4-dihydro-quinoline-3-carboxylic acid]
- MIC [1]: ≤ 0.015 µg/mL
- MIC [2]: 0.12 µg/mL (≈ 0.258 µM)
- MIC [4]: 1 µg/mL (≈ 2.15 µM)
- MIC [5]: 0.5 µg/mL (≈ 1.07 µM)

SMILES: CC(CN)=C1CN(c2c(F)cc3c(=O)c(C(=O)O)cn(-c4nc(N)c(F)cc4F)c3c2Cl)C1 [Compound 421, 1-(6-Amino-3,5-difluoro-pyridin-2-yl)-7-[3-(2-amino-1-methyl-ethylidene)-azetidin-1-yl]-8-chloro-6-fluoro-4-oxo-1,4-dihydro-quinoline-3-carboxylic acid]
- MIC [1]: 0.06 µg/mL (≈ 0.125 µM)
- MIC [2]: 0.25 µg/mL (≈ 0.521 µM)
- MIC [4]: 2 µg/mL (≈ 4.17 µM)
- MIC [5]: 1 µg/mL (≈ 2.08 µM)

SMILES: C/C(CN)=C1\CCCN(c2c(F)cc3c(=O)c(C(=O)O)cn(-c4nc(N)c(F)cc4F)c3c2Cl)C1 [Compound 422, (Z)-1-(6-Amino-3,5-difluoro-pyridin-2-yl)-7-[3-(2-amino-1-methyl-ethylidene)-piperidin-1-yl]-8-chloro-6-fluoro-4-oxo-1,4-dihydro-quinoline-3-carboxylic acid]
- MIC [1]: 0.12 µg/mL (≈ 0.236 µM)
- MIC [2]: 1 µg/mL (≈ 1.97 µM)
- MIC [3]: > 16 µg/mL
- MIC [4]: > 16 µg/mL
- MIC [5]: > 16 µg/mL

SMILES: C/C(CN)=C1/CCCN(c2c(F)cc3c(=O)c(C(=O)O)cn(-c4nc(N)c(F)cc4F)c3c2Cl)C1 [Compound 423, (E)-1-(6-Amino-3,5-difluoro-pyridin-2-yl)-7-[3-(2-amino-1-methyl-ethylidene)-piperidin-1-yl]-8-chloro-6-fluoro-4-oxo-1,4-dihydro-quinoline-3-carboxylic acid]
- MIC [1]: 0.25 µg/mL (≈ 0.492 µM)
- MIC [2]: 4 µg/mL (≈ 7.88 µM)
- MIC [3]: > 16 µg/mL
- MIC [4]: > 16 µg/mL
- MIC [5]: > 16 µg/mL

SMILES: Cc1c(F)c(N2CCC/C(=C(\F)CN)C2)cc2c1c(=O)c(C(=O)O)cn2C1CC1 [Compound 424, (E)-7-[3-(2-Amino-1-fluoro-ethylidene)-piperidin-1-yl]-1-cyclopropyl-6-fluoro-5-methyl-4-oxo-1,4-dihydro-quinoline-3-carboxylic acid]
- MIC [1]: ≤ 0.015 µg/mL
- MIC [2]: ≤ 1 µg/mL
- MIC [3]: 0.06 µg/mL (≈ 0.149 µM)
- MIC [4]: 0.5 µg/mL (≈ 1.24 µM)
- MIC [5]: ≤ 1 µg/mL

SMILES: Cc1c(F)c(N2CCC/C(=C(/F)CN)C2)cc2c1c(=O)c(C(=O)O)cn2C1CC1 [Compound 425, (Z)-7-[3-(2-Amino-1-fluoro-ethylidene)-piperidin-1-yl]-1-cyclopropyl-6-fluoro-5-methyl-4-oxo-1,4-dihydro-quinoline-3-carboxylic acid]
- MIC [1]: 0.06 µg/mL (≈ 0.149 µM)
- MIC [2]: 1 µg/mL (≈ 2.48 µM)
- MIC [3]: 4 µg/mL (≈ 9.92 µM)
- MIC [4]: 16 µg/mL (≈ 39.7 µM)
- MIC [5]: 8 µg/mL (≈ 19.8 µM)

SMILES: Cc1c(F)c(N2CCC/C(=C(\Cl)CN)C2)cc2c1c(=O)c(C(=O)O)cn2C1CC1 [Compound 426, (E)-7-[3-(2-Amino-1-chloro-ethylidene)-piperidin-1-yl]-1-cyclopropyl-6-fluoro-5-methyl-4-oxo-1,4-dihydro-quinoline-3-carboxylic acid]
- MIC [1]: ≤ 0.015 µg/mL
- MIC [2]: 0.06 µg/mL (≈ 0.143 µM)
- MIC [3]: ≤ 0.5 µg/mL
- MIC [4]: 1 µg/mL (≈ 2.38 µM)
- MIC [5]: 0.25 µg/mL (≈ 0.595 µM)

SMILES: Cc1c(F)c(N2CCC/C(=C/CN)C2)cc2c1c(=O)c(C(=O)O)cn2C1CC1 [Compound 427, (Z)-7-[3-(2-Amino-ethylidene)-piperidin-1-yl]-1-cyclopropyl-6-fluoro-5-methyl-4-oxo-1,4-dihydro-quinoline-3-carboxylic acid]
- MIC [1]: ≤ 0.015 µg/mL
- MIC [2]: 0.12 µg/mL (≈ 0.311 µM)
- MIC [3]: 2 µg/mL (≈ 5.19 µM)
- MIC [4]: 4 µg/mL (≈ 10.4 µM)
- MIC [5]: 1 µg/mL (≈ 2.59 µM)

SMILES: CNC/C(Cl)=C1/CCCN(c2cc3c(cc2F)c(=O)c(C(=O)O)cn3C2CC2)C1.Cl [Compound 428, (E)-7-[3-(1-Chloro-2-methylamino-ethylidene)-piperidin-1-yl]-1-cyclopropyl-6-fluoro-4-oxo-1,4-dihydroquinoline-3-carboxylic Acid Hydrochloride Salt]
- MIC [1]: 0.25 µg/mL
- MIC [2]: 1 µg/mL
- MIC [3]: > 16 µg/mL
- MIC [4]: > 16 µg/mL
- MIC [5]: > 16 µg/mL

SMILES: CNCC(F)=C1CN(c2cc3c(cc2F)c(=O)c(C(=O)O)cn3C2CC2)C1.O=C(O)C(F)(F)F [Compound 430, 1-Cyclopropyl-6-fluoro-7-[3-(1-fluoro-2-methylamino-ethylidene)-azetidin-1-yl]-4-oxo-1,4-dihydro-quinoline-3-carboxylic acid trifluoroacetic acid salt]
- MIC [1]: 0.12 µg/mL
- MIC [2]: 0.5 µg/mL
- MIC [3]: 8 µg/mL
- MIC [4]: 2 µg/mL
- MIC [5]: 4 µg/mL

SMILES: CNCC(Cl)=C1CN(c2cc3c(cc2F)c(=O)c(C(=O)O)cn3C2CC2)C1 [Compound 431, 7-[3-(1-Chloro-2-methylamino-ethylidene)-azetidin-1-yl]-1-cyclopropyl-6-fluoro-4-oxo-1,4-dihydro-quinoline-3-carboxylic acid trifluoroacetic acid salt]
- MIC (Staphylococcus aureus, Organism A: Staphylococcus aureus OC4172): 0.06 µg/mL
- MIC (Streptococcus pneumoniae, ATCC49619, Organism E: Streptococcus pneumoniae ATCC 49619): 0.25 µg/mL
- MIC [3]: 4 µg/mL
- MIC [4]: 1 µg/mL
- MIC [5]: 2 µg/mL

SMILES: COc1c(N2CCC(=C(C#N)CN)CC2)c(F)cc2c(=O)c(C(=O)O)cn(C3CC3)c12 [Compound 433, 7-[4-(2-Amino-1-cyano-ethylidene)-piperidin-1-yl]-1-cyclopropyl-6-fluoro-8-methoxy-4-oxo-1,4-dihydro-quinoline-3-carboxylic Acid]
- MIC [1]: ≤ 0.015 µg/mL
- MIC [2]: 0.12 µg/mL (≈ 0.281 µM)
- MIC [4]: 0.5 µg/mL (≈ 1.17 µM)
- MIC [5]: 0.5 µg/mL (≈ 1.17 µM)

SMILES: C[C@H]1COc2c(N3CCC(=C(C#N)CN)CC3)c(F)cc3c(=O)c(C(=O)O)cn1c23 [Compound 435, 9-[4-(2-Amino-1-cyano-ethylidene)-piperidin-1-yl]-8-fluoro-(3S)-3-methyl-6-oxo-2,3-dihydro-6H-1-oxa-3a-aza-phenalene-5-carboxylic Acid]
- MIC [1]: 0.12 µg/mL (≈ 0.291 µM)
- MIC [2]: 0.5 µg/mL (≈ 1.21 µM)
- MIC [4]: 4 µg/mL (≈ 9.7 µM)
- MIC [5]: 8 µg/mL (≈ 19.4 µM)

SMILES: N#CC(CN)=C1CCN(c2c(F)cc3c(=O)c(C(=O)O)cn(C4CC4)c3c2OC(F)F)CC1 [Compound 437, 7-[4-(2-Amino-1-cyano-ethylidene)-piperidin-1-yl]-1-cyclopropyl-6-fluoro-8-difluoromethoxy-4-oxo-1,4-dihydro-quinoline-3-carboxylic Acid]
- MIC [1]: 0.06 µg/mL (≈ 0.13 µM)
- MIC [2]: 0.12 µg/mL (≈ 0.259 µM)
- MIC [4]: 1 µg/mL (≈ 2.16 µM)
- MIC [5]: 0.25 µg/mL (≈ 0.541 µM)
